# Test results published in US10238688B2, “Combination therapies for bladder cancer” (GENEDIA BIOTECH CO. LTD., priority 2015, dated 2019).
# Experiments:
# Assay type in all cases: cell-based, human
# [1] = test system: H-bc; assay: MTT cell survival / IC50, H-bc cells
# Experimental: (§1) The clinical grade of the chemotherapeutics (NCI Dictionary of Cancer Terms) was provided by the First Affiliated Hospital of Harbin Medical University: Pirarubicin (Pi, Wanle, Shenzhen), Paclitaxel (Pa, Taiji, Sichuan), Adriamycin (Ad, Pfizer, Jiangsu), Epirubicin Hydrochloride (EH, Haizheng, Zhejiang), Hydroxycamptothecin (Hy, Lishizhen, Hubei), Cisplatin (Ci, Haosen, Jiangsu), Gemcitabine (Ge, Haosen, Jiangsu) and Mitomycin (Mi, Haizheng, Zhejiang). The drug induced cell death was determined by a thiazolyl […] (MTT, 490 nm reading) based cell proliferation assay in the cultured cells following treatment by various concentrations of drugs for 72 hours. The relative chemoresistance to each drug of all cell lines was calculated with the lowest IC50 as a reference. The overall chemoresistance of each cell line was described as “chemoresistance index”, the numerator of the total relative IC50 to all the drugs over the number of drugs to rank the overall resistance state of each cell line to the six chemotherapeutics collectively.
# (§2) The relative IC50 (fold) of each drug of all nine cell lines was normalized to the lowest IC50 in the most sensitive cell line (FIG. 2G), to describe the single drug resistance of cell lines. The overall chemoresistance of each cell line, a “chemoresistance index” (the numerator of the total relative IC50 over the number of drugs) (FIG. 2G) were calculated to rank the overall resistance state of each cell line to this six chemotherapeutics.
# (§3) Twenty six-drug combinations at the indicated doses were initially generated through a random number generator (using MATLAB MathWorks©, Natick, Mass., U.S.) (The upper half of Table 1). The cell survival (% over the not drug control) of treated cells was determined and then used for a calculation of the average cumulative cell survival (%, ACS: the sum of cell survival (%) per combination divided by the number of cell lines tested). ACS<30% was used to separate the effective from the not-effective combinations.
# [2] = test system: Biu87; assay: MTT cell survival / IC50, Biu87 cells
# Experimental: as §1, §2, §3
# [3] = test system: Cell Cycle/pRb-E2F pathway; assay: Cignal Finder dual-luciferase pathway reporter, Cell Cycle/pRb-E2F; settings: for Relative activity, Cell Cycle/pRb-E2F reporter: luc/Renluc relative to negative control reporter, single drug at 4 folds vs EH/Ci/Mi combination
# Experimental: (§4) The pathway analysis was performed with Qiagen's Cignal Finder Pathway Reporter Array systems according to the manufacturer's instructions. The pathway-focused dual-luciferase reporter construct was a mixture of an inducible transcription factor responsive firefly luciferase reporter and constitutively expressing renilla construct. Transcriptional response element (TRE) sequence response elements to each specific transcriptional factor triggered by the different signaling pathways are positioned before the TATA box of firefly luciferase reporter gene. The extent of activity of the reporter reflects the level of activity of the particular signaling pathway. CMV controlled renilla expression vector is co-transfected into the cell as an internal control. Non-inducible reporter construct that lacks the transcriptional factor binding sequence and could not be induced by any transcription factors is used as a negative control. Cells transfected with CMV directed firefly luciferase reporter gene serve as a positive control. Briefly, cells seeded in 6-well plates were transfected with Cignal finder pathway arrays according to the manufacturer's instructions (Qiagen). Then cells were seeded onto 96-well plates. Ci (6000 ng/mL), Mi (800 ng/mL), or EH (1000 ng/mL) and Ci/Mi/EH combination (Ci, 1500 ng/mL, Mi, 800 ng/mL and EH, 1000 ng/m L) were then added to the cells 24 h post-transfection. After 6 h of incubation with the different drugs at 37° C., cells were lysed and a dual luciferase assay (for firefly and renilla luciferase) was performed using a PromegaGloMax 20/20 illuminometer. The firefly luciferase activities were normalized over the renilla luciferase activities after background activity determined by luciferase activities of negative controls was subtracted. A triple test of cell survival under these drug doses was also performed by MTT assay following 18 h incubation at 37° C. […]
# [4] = test system: ER Stress pathway; assay: Cignal Finder dual-luciferase pathway reporter, ER Stress; settings: for Relative activity, ER Stress reporter: luc/Renluc relative to negative control reporter, single drug at 4 folds vs EH/Ci/Mi combination
# Experimental: as §4
# [5] = test system: Heat Shock pathway; assay: Cignal Finder dual-luciferase pathway reporter, Heat Shock; set-up: key to Relative activity, Heat Shock reporter: firefly/renilla ratio, background (negative control) subtracted; settings: for Relative activity, Heat Shock reporter: luc/Renluc relative to negative control reporter, single drug at 4 folds vs EH/Ci/Mi combination
# Experimental: as §4, with “Ci (6000 ng/mL), Mi (800 ng/mL), or EH (1000 ng/mL) and Ci/Mi/EH combination (Ci, 1500 ng/mL, Mi, 800 ng/mL and EH, 1000 ng/m L) were then added to the cells 24 h post-transfection.” left out
structure (smiles),measurement,setting,value
"COC12C(COC(N)=O)C3=C(C(=O)C(C)=C(N)C3=O)N1CC1NC12 (stereo not shown) [Mi, [6-Amino-8a-methoxy-5-methyl-4,7-dioxo-1,1a,2,4,7,8,8a,8b-octahydroazireno [2′,3′:3,4]pyrrolo[1,2-a]indol-8-yl]methyl carbamate]",Cell survival 72 hours,"[1]; H-bc cells, Table 4 (A)",81.16%
same,ACS (%),"[1]; H-bc cells, Table 4 (B)",81.16%
same,Cell survival (%),"[1]; H-bc, Table S3, ng/ml: Pi 40, Pa 160, EH 250, Ci 1500, Mi 200, 1=Ci/Mi, 2=EH/Ci/Mi, 3=Pa/Ci/Mi, 4=Pi/Ci/Mi",91.67%
same,Single drug 4X Cell Survival (%),"[1]; H-bc, ng/ml: EH 1000, Ci 6000, Mi 800, Pi 160, Pa 640, Ge 20, EH/Ci/Mi regimen",81.16%
same,Cell survival (%),"[2]; Biu87, Table S3, ng/ml: Pi 40, Pa 160, EH 250, Ci 1500, Mi 200, 1=Ci/Mi, 2=EH/Ci/Mi, 3=Pa/Ci/Mi, 4=Pi/Ci/Mi",42.05%
same,Single drug 4X Cell Survival (%),"[2]; Biu87, ng/ml: EH 1000, Ci 6000, Mi 800, Pi 160, Pa 640, Ge 20, EH/Ci/Mi regimen",21.74%
same,Cell survival 72 hours,"[2]; Biu87 cells, Table 4 (A)",21.74%
same,ACS (%),"[2]; Biu87 cells, Table 4 (B)",21.74%
same,"relative drug trigged pathway activity over the no-drug level, Cell Cycle/pRb-E2F",[3]; 5637 cells,2.64 fold
same,"Relative activity, Cell Cycle/pRb-E2F reporter",[3]; 5637 cells,2.40
same,"digitalized pathway activity, Cell Cycle/pRb-E2F",[3]; Biu87 cells,0 (null (0) if neither of the above holds)
same,"relative drug trigged pathway activity over the no-drug level, Cell Cycle/pRb-E2F",[3]; Biu87 cells,1.46 fold
same,"Relative activity, Cell Cycle/pRb-E2F reporter",[3]; Biu87 cells,0.83
same,"relative drug trigged pathway activity over the no-drug level, Cell Cycle/pRb-E2F",[3]; H-bc cells,0.3 fold
same,"Relative activity, Cell Cycle/pRb-E2F reporter",[3]; H-bc cells,0.92
same,"digitalized pathway activity, Cell Cycle/pRb-E2F",[3]; SV-HUC-1 cells,0 (null (0) if neither of the above holds)
same,"relative drug trigged pathway activity over the no-drug level, Cell Cycle/pRb-E2F",[3]; SV-HUC-1 cells,1.39 fold
same,"Relative activity, Cell Cycle/pRb-E2F reporter",[3]; SV-HUC-1 cells,6.80
same,"Relative activity, Cell Cycle/pRb-E2F reporter",[3]; UM-UC-3 cells,2.17
same,"relative drug trigged pathway activity over the no-drug level, Cell Cycle/pRb-E2F",[3]; Um-Uc-3 cells,0.37 fold
same,"relative drug trigged pathway activity over the no-drug level, ER Stress",[4]; 5637 cells,3.2 fold
same,"Relative activity, ER Stress reporter",[4]; 5637 cells,83.09
same,"relative drug trigged pathway activity over the no-drug level, ER Stress",[4]; Biu87 cells,1.65 fold
same,"Relative activity, ER Stress reporter",[4]; Biu87 cells,36.14
same,"relative drug trigged pathway activity over the no-drug level, ER Stress",[4]; H-bc cells,1.97 fold
same,"Relative activity, ER Stress reporter",[4]; H-bc cells,44.48
same,"relative drug trigged pathway activity over the no-drug level, ER Stress",[4]; SV-HUC-1 cells,1.51 fold
same,"Relative activity, ER Stress reporter",[4]; SV-HUC-1 cells,155.20
same,"Relative activity, ER Stress reporter",[4]; UM-UC-3 cells,109.59
same,"relative drug trigged pathway activity over the no-drug level, ER Stress",[4]; Um-Uc-3 cells,1.34 fold
same,"digitalized pathway activity, Heat Shock",[5]; 5637 cells,0 (null (0) if neither of the above holds)
same,"relative drug trigged pathway activity over the no-drug level, Heat Shock",[5]; 5637 cells,1.38 fold
same,"Relative activity, Heat Shock reporter",[5]; 5637 cells,19.47
same,"relative drug trigged pathway activity over the no-drug level, Heat Shock",[5]; Biu87 cells,4.54 fold
same,"Relative activity, Heat Shock reporter",[5]; Biu87 cells,8.60
same,"relative drug trigged pathway activity over the no-drug level, Heat Shock",[5]; H-bc cells,0.3 fold
same,"Relative activity, Heat Shock reporter",[5]; H-bc cells,1.12
same,"digitalized pathway activity, Heat Shock",[5]; SV-HUC-1 cells,0 (null (0) if neither of the above holds)
same,"relative drug trigged pathway activity over the no-drug level, Heat Shock",[5]; SV-HUC-1 cells,1.01 fold
same,"Relative activity, Heat Shock reporter",[5]; SV-HUC-1 cells,40.00
same,"digitalized pathway activity, Heat Shock",[5]; UM-UC-3 cells,0 (null (0) if neither of the above holds)
same,"Relative activity, Heat Shock reporter",[5]; UM-UC-3 cells,4.03
same,"relative drug trigged pathway activity over the no-drug level, Heat Shock",[5]; Um-Uc-3 cells,0.93 fold
